Measurements: publication PMC13065080, “Discovery of a potent anti-Zika virus benzamide series targeting the viral protein NS4B” (PLOS Pathogens, 2026)
Read-outs that look alike come from different tables or passages of the source.

Key:
[1] = in vitro; settings: African green monkey, CC50 Vero76
[2] = system: ZIKV PLCal; assay: CPE-based anti-ZIKV concentration-response assay (96-well); format: cell-based, Zika virus
[3] = system: ZIKV-RLuc; assay: microbe, parasite or virus in culture; format: cell-based, Zika virus
[4] = system: Vero76
[5] = system: ZIKV-RLuc NS4B A245T; format: cell-based, Zika virus
[6] = system: ZIKV-RLuc NS4B V248G; format: cell-based, Zika virus
[7] = system: ZIKV PLCal; assay: Virus yield (titer) reduction assay in Huh 7.5.1 cells; format: cell-based, Zika virus; settings: 1 µM
[8] = system: ZIKV-RLuc NS4B V241L; format: cell-based, Zika virus
[9] = biological target: T1, miniRFP-NS4B (Zika virus, UniProt A0A142I5B9); assay: Flow cytometric binding assay, miniRFP-NS4B expressing cells; format: cell-based; settings: 293T cells, vs miniRFP alone, miniRFP-NS5 or NS4B-negative cells
T1 construct: 2K-miniRFPnano3-NS4B polypeptide-expressing plasmid (miniRFP-NS4B, hereafter); expressed in transfected cells; host or cells: HEK-293T
Description: HEK-293T cells plated in 12-well plates at 70–80% confluency were transfected with plasmid DNA (1 µg/well) using PEI (Polyethylenimine, 3 µg/well) following a protocol described elsewhere. At 24 hours post transfection, cells were harvested by trypsinization, fixed with 2% PFA, and permeabilized with […]. After blocking for one hour with Intercept Protein-Free blocking buffer (Li-Cor), cells were incubated with MWAC-4163 in PBS with 10% blocking buffer for 30 minutes. After extensive washing, cells were analyzed on an Accuri C6 flow cytometer (BD Sciences) using channel 1 for FAM (ex488 nm/em533) and channel 4 (ex640 nm/em675LP) for miniRFP.

[10] = biological target: ZIKV NS4B (Zika virus, UniProt A0A142I5B9); assay: biochemical; format: binding
[11] = Zika virus, 72 h, Vero 76, MOI 0.05, 3-day incubation, CellTiter-Glo, read-out: EC50-CPE ZIKV-PLCal
[12] = Zika virus, Vero 76, 72 h, wild type ZIKV-RLuc, Vero 76, MOI 0.1, three days, read-out: EC50 ZIKV-RLuc
[13] = Vero 76, MOI 0.05, 3-day incubation, CellTiter-Glo, read-out: EC50-CPE ZIKV-PLCal
[14] = wild type ZIKV-RLuc, Vero 76, MOI 0.1, three days, read-out: EC50 ZIKV-RLuc
[15] = Zika virus, Fig 7, read-out: CPE EC50
[16] = Zika virus, Fig 7, read-out: RLuc EC50

Question: With `CC(NC(=O)c1ccc(C(C)(C)C)cc1)c1ccncc1` (centres unmarked) [MWAC-3510] as the molecule, how does the CC50 [1] read?
Answer: The CC50 was over 48 µM.

Question: What about the EC50 [2, 11] of the same molecule?
Answer: Its EC50 is over 50 µM.

Question: And the EC50 [3, 12]?
Answer: The EC50 was 15 µM.

Question: For `CC(C)(C)c1ccc(C(=O)NC2CCOC2)cc1` (centres unmarked) [MWAC-3509], which CC50 [1] is on record?
Answer: Its CC50 is over 50 µM.

Question: And the EC50 [2, 11]?
Answer: Its EC50 is 18 µM.

Question: And the EC50 [3, 12]?
Answer: The EC50 was 6.1 µM.

Question: For `CC(C)c1ccc(C(=O)NC2CC3CCC2C3)cc1` (stereo not drawn) [MWAC-3991, N-((exo)-bicyclo[2.2.1]heptan-2-yl)-4-isopropylbenzamide], which CC50 [4] is on record?
Answer: Its CC50 is over 50 µM.

Question: And the EC50 [2, 13]?
Answer: The EC50 was 2.58 ± 1.39 µM.

Question: What about the EC50 [3, 14] of the same molecule?
Answer: Its EC50 is 0.72 ± 0.22 µM.

Question: Which CC50 [4] does the source give for `CC(C)(O)c1ccc(C(=O)NC2CC3CCC2C3)cc1` (stereo not drawn) [MWAC-3995, N-((exo)-bicyclo[2.2.1]heptan-2-yl)-4-(2-hydroxypropan-2-yl)benzamide] here?
Answer: Its CC50 is over 50 µM.

Question: What about the EC50 [2, 13] of the same molecule?
Answer: The EC50 was 39 µM.

Question: And the EC50 [3, 14]?
Answer: Its EC50 is 13.9 µM.

Question: Which results are given for `O=C(NC1CC2CCC1C2)c1ccc(C2CC2)cc1` (stereo not drawn) [MWAC-3990, N-((exo)-bicyclo[2.2.1]heptan-2-yl)-4-cyclopropylbenzamide]?
Answer: CC50 [4]: 22.7 µM; EC50 [2, 13]: 33.1 ± 25.5 µM; EC50 [3, 14]: 3.01 ± 1.11 µM

Question: Which results are given for `CC(C)(C)c1ccc(C(=O)N[C@@H]2C[C@H]3CC[C@@H]2C3)cc1` (relative stereo) [MWAC-3989, N-((exo)-bicyclo[2.2.1]heptan-2-yl)-4-(tert-butyl)benzamide]?
Answer: CC50 [1]: > 50 µM; EC50 [5]: 0.45 ± 0.05 µM; EC50 [6]: 4 ± 0.76 µM; VYR: Virus Yield reduction (Log 10) [7]: -0.18 ± 0.14 Log 10; EC50 [8]: 10.6 ± 2.04 µM; EC50 [2, 11]: 0.46 ± 0.1 µM; EC50 [2, 15]: 0.34 µM; EC50 [3, 12]: 0.07 ± 0.007 µM; EC50 [3, 16]: 0.115 µM; EC50 [3, 14]: 0.13 ± 0.068 µM

Question: Which results are given for `CC(C)(C)c1ccc(C(=O)NC2CCN(Cc3ccccc3)CC2)cc1` [MWAC-3512]?
Answer: CC50 [1]: 58 µM; EC50 [2, 11]: 44 µM; EC50 [3, 12]: 7.4 µM

Question: Which “binding to cells expressing miniRFP-NS4B (FAM-positive frequency)” value [9] does the source give for `COc1ccc([C@@H](C)NC(=O)c2ccc(C(C)(C)C)cc2)cc1` [MWAC-4169, (R)-4-(tert-butyl)-N-(1-(4-methoxyphenyl)ethyl)benzamide] here?
Answer: Its value is “significantly higher degree of binding”.

Question: Which CC50 [1] does the source give for `CC(C)(C)c1ccc(C(=O)NC2CCS(=O)(=O)C2)cc1` (centres unmarked) [MWAC-3506] here?
Answer: The CC50 was over 50 µM.

Question: What about the EC50 [2, 11] of the same molecule?
Answer: Its EC50 is over 50 µM.

Question: And the EC50 [3, 12]?
Answer: Its EC50 is over 50 µM.

Question: With `CC(C)(C)c1ccc(C(=O)N2C[C@H](C(=O)O)[C@@H](c3cccc(F)c3)C2)cc1` (relative stereo) [MWAC-3533] as the molecule, how does the EC50 ([3]; Zika virus, Vero 76, 72 h, read-out: EC50 ZIKV-RLuc) read?
Answer: Its EC50 is about 16 µM.

Question: What about the Kd [10] of the same molecule?
Answer: The Kd was about 35 µM.

Question: And the “19F-NMR signal change with ZIKV NS4B” value ([10]; compound 50 µM)?
Answer: Its value is “shifted by the presence of ZIKV NS4B in a concentration-dependent manner”.

Question: With `CC(C)(C)c1ccc(C(=O)NC2CCCCCC2)cc1` [MWAC-4001, 4-(tert-butyl)-N-cycloheptylbenzamide] as the molecule, how does the CC50 [1] read?
Answer: The CC50 was 12 µM.

Question: And the EC50 [5]?
Answer: The EC50 was 1.07 ± 0.16 µM.

Question: What about the “Fold-increase / fold-change of EC50, NS4B A245T vs wild type” value [5] of the same molecule?
Answer: The value was 25.1.

Question: What about the EC50 [6] of the same molecule?
Answer: The EC50 was 10.1 ± 0.81 µM.

Question: And the “Fold-increase / fold-change of EC50, NS4B V248G vs wild type” value [6]?
Answer: Its value is 238.2.

Question: And the “VYR: Virus Yield reduction (Log 10)” value [7]?
Answer: The value was -2.68 ± 0.36 Log 10.

Question: And the EC50 [8]?
Answer: The EC50 was 24 µM.

Question: And the “Fold-increase / fold-change of EC50, NS4B V241L vs wild type” value [8]?
Answer: The value was 564.2.

Question: What about the EC50 [2, 15] of the same molecule?
Answer: Its EC50 is 0.09 µM.

Question: And the “Fold-change of EC50, Wt” value ([3]; ZIKV RLuc assay, reference)?
Answer: The value was 1.

Question: What about the EC50 [3, 12] of the same molecule?
Answer: The EC50 was 0.04 ± 0.006 µM.

Question: What about the EC50 [3, 16] of the same molecule?
Answer: The EC50 was 0.05 µM.
